Laboratory results reported in patent US20240287102A1, “NOVEL CRYSTALLINE FORMS OF [(1R)-2-(1-BENZOFURAN-3-YL)-1-{[(1S,2R,4R)-7-OXABICYCLO[2.2.1]HEPTAN-2-YL]FORMAMIDO}ETHYL]BORONIC ACID, ADDUCTS THEREOF, AND PROCESSES TO OBTAIN” (Merck Patent GmbH, priority 2021, published 2024).
≈ marks a conversion by molar mass, not a printed value. Where two headings read alike, the source gives them in different places.

Legend:
[1] = Thermodynamic solubility (24 h) at 37° C.; format: physicochemical; conditions: for solubility thermodynamic at 24 h: 37 °C, thermodynamic from solid
Experimental: Approximately 10-20 mg of 1-(4-{[6-Amino-5-(4-phenoxy-phenyl)-pyrimidin-4-ylamino]-methyl}-4-fluoro-piperidin-1-yl)-propenone was weighed into a 4 mL glass vial. 1 mL of SGF medium (simulated gastric fluid, pH 1.2), FaSSIF medium (fasted state intestinal medium, pH 6.5), or USP Phosphate buffer pH 7.4 was added and the suspension was shaken for 24 h at 450 rpm at 37° C. After 1 hour, 6 hours and after 24 hours, the vials were checked for the presence of undissolved compound and the pH was measured. If necessary, the pH was adjusted after 1 hour and 6 hours. The solid liquid separation was carried out using 1 mL syringe and 0.2 μm syringe filter. Clear filtrate was analyzed by HPlC after suitable dilution to measure the amount of API dissolved.

[2] = Water Vapour Sorption isotherm (25° C., DVS-Intrinsic); format: physicochemical; conditions: for water uptake levels: 25° C.
Experimental: DSC scan of trimeric form A1 was acquired on a Mettler-Toledo DSC 1 with a heating rate of 5 K/min, using nitrogen purge gas at 50 mL/min. TGA scan of trimeric form A1 was acquired on a Mettler-Toledo TGA 851 with a heating rate of 5 K/min, using nitrogen purge gas at 50 mL/min. […] Eur. Criteria (section 5.11.). Water Vapour Sorption isotherm was acquired on a DVS-Intrinsic system from SMS. […] Dissolution level of trimeric form A1 in Simulated Gastric Fluid [SGF, pH 1.2] at 37° C. was determined to be approximately 2.4 mg/mL after 2 h (see example 12).
DSC scan of hydrate form NF2 was acquired on a Mettler-Toledo DSC 1 with a heating rate of 5 K/min, using nitrogen purge gas at 50 mL/min. TGA scan of hydrate form NF2 was acquired on a Mettler-Toledo TGA 851 with a heating rate of 5 K/min, using nitrogen purge gas at 50 mL/min. […] Eur. Criteria (section 5.11.). Water Vapour Sorption isotherm was acquired on a DVS-Intrinsic system from SMS.
In the DSC, a phase transition to trimeric form A1 occurred above 150° C., and the trimeric A1 form has a melting peak onset greater than 220° C. […] DSC scan of the anhydrous form NF9 was acquired on a Mettler-Toledo DSC 1 with a heating rate of 5 K/min, using nitrogen purge gas at 50 mL/min. TGA scan of anhydrous form NF9 was acquired on a Mettler-Toledo TGA 851 with a heating rate of 5 K/min, using nitrogen purge gas at 50 mL/min. […] Eur. Criteria (section 5.11.). […] Water Vapour Sorption isotherm was acquired on a DVS-Intrinsic system from SMS.
This is followed by an exothermic event in the DSC, assigned to a phase transition to trimeric form A1. Finally, the melting of trimeric form A1 with melting peak onset at temperatures greater than 220° C. […] DSC scan of the hydrate of trimeric boronic acid adduct form NF7 was acquired on a Mettler-Toledo DSC 1 with a heating rate of 5 K/min, using nitrogen purge gas at 50 mL/min. TGA scan of the hydrate of trimeric boronic acid adduct form NF7 was acquired on a Mettler-Toledo TGA 851 with a heating rate of 5 K/min, using nitrogen purge gas at 50 mL/min. […] Eur. Criteria (section 5.11.). […]

[3] = molecular target: LMP7 subunit of the immunoproteasome (Homo sapiens, UniProt P20618+P28062); conditions: Singh et al, Br. J. Hematology 152(2): 155-163; cited from earlier work

Thermodynamic solubility FaSSIF pH 6.5 ([1]; Fasted-State Simulated Intestinal Fluid pH 6.5, 37° C., 24 h) [mg/mL]	Thermodynamic solubility SGF pH 1.2 ([1]; Simulated Gastric Fluid pH 1.2, 37° C., 24 h) [mg/mL]	solubility thermodynamic at 24 h ([1]; fasted-state simulated intestinal fluid (FaSSIF), pH 6.5, fassif, Fasted-State Simulated Intestinal Fluid pH 6.5, 37° C., 24 h, read-out: Thermodynamic solubility FaSSIF pH 6.5) [µg/mL]	solubility in biorelevant media (in words) ([1]; listed as Hydrate form NF2)	solubility in biorelevant media (in words) ([1]; listed as hydrate form NF2)	solubility thermodynamic at 24 h ([1]; simulated gastric fluid (SGF), pH 1.2, simulated gastric fluid, Simulated Gastric Fluid pH 1.2, 37° C., 24 h, read-out: Thermodynamic solubility SGF pH 1.2) [µg/mL]	hygroscopicity classification according to Ph. Eur. Criteria (section 5.11.) [2]	water uptake levels ([2]; relative humidity range 0-80% rh) [% m/m]	water uptake levels ([2]; relative humidity range 90-98% rh) [% m/m]	SMILES	selectivity as inhibitor of the LMP7 subunit [3] [fold]
0.7	0.7	~700 (≈ 2130 µM)	highly soluble in biorelevant media	good solubility in biorelevant media	~700 (≈ 2130 µM)	slightly hygroscopic	≤ 1	≤ 5	O=C(N[C@@H](Cc1coc2ccccc12)B(O)O)[C@@H]1C[C@H]2CC[C@@H]1O2 [Form NF2]	–
–	–	–	–	–	–	–	–	–	CC1=C(C(=O)N[C@H](C)C(=O)N[C@@H](Cc2c[nH]c3ccccc23)C(=O)N[C@@H](Cc2ccccc2)C(=O)[C@@]2(C)CO2)Cc2ccccc21 [PR-924]	100
